Measurements as given in patent US20070203215A1, “Methods & Compositions For Enhancing Pharmaceutical Treatments” (Taiji Biomedical, Inc., priority 1999, published 2007).
Several values for one entry are separate records, joined by “and”; a condition that tells them apart may be missing. Equal entries are not always repeated.

Legend:
[1] = Saquinavir in rat cerebrospinal fluid and brain after oral ONT-093 or vehicle; format: in vivo, Sprague Dawley rats; settings: Group 4: after vehicle, 30 min after saquinavir dose, individual animals 4001-4004
Method: (§1) Blood samples (ca 0.3 mL) were collected from 8 selected rats by jugular venipuncture during slight anesthesia pre-dose and at 0.25, 0.5, 1, 2, 4 and 8 post-dose (saquinavir dose). Cerebrospinal fluid (CSF) and brain tissue were collected terminally from the remaining 8 rats at ca 30 min following administration of the dose of saquinavir. Blood samples were collected into tubes containing EDTA and placed on wet ice pending centrifugation. Plasma, CSF and brain tissue samples were stored at ca −80° C. until analysis of saquinavir by LC/MS. The vehicle used was polyethylene glycol (PEG-400)1 Tween 20 (9:1; v:v).
(§2) A total of 16 male Sprague Dawley rats were received from Charles River Canada (Saint-Constant, Quebec). Animals were approximately 9 weeks of age at arrival and weighed ca 312-340 g. Four males were randomly assigned to each of Groups 1, 2, 3 and 4. On the day of dosing and following an overnight fast, animals were weighed (ca 305-323 g) and were administered their respective combination of doses. Animals of Groups 1 and 3 received a single oral dose of ONT-093 (20 mg/kg) by gavage at a dose volume of 2 mL/kg. Animals of Groups 2 and 4 received a single oral dose of the vehicle by gavage at a dose volume of 2 mL/kg. Approximately 30 min following administration of either ONT-093 or the vehicle, all animals received a single oral dose of saquinavir (20 mg/kg) by gavage at a dose volume of 1 mL/kg.
(§3) Following administration of saquinavir, blood samples (ca 0.3 mL in EDTA) were obtained from all rats of Groups 1 and 2 by jugular venipuncture during anesthesia with isoflurane (Ohmeda Pharmaceutical Products) at each of the following time-points: pre-dose (prior to administration of ONT-093 or vehicle) and 0.25, 0.5, 1, 2, 4 and 8 hr post-dose. Following administration of saquinavir, CSF was obtained from all animals of Groups 3 and 4 at 30 min following dose administration. CSF was collected (in tubes containing no anticoagulant) from the cistema magna during anesthesia with isoflurane. Following CSF collection, the animals were sacrificed by exsanguination via puncture of the vena cava and the brain was harvested from all these rats. Immediately following collection, all samples (blood, CSF and brain) were placed on ice until further processing or storage. Blood samples were centrifuged (ca 3080 g at ca 4° C. for 10 min) and the resulting plasma samples were stored at ca −80° C. pending analysis. CSF samples and brains were stored at ca −80° C. pending analysis.
(§4) Plasma samples, CSF samples and brains were analyzed for unchanged saquinavir using an LC/MS assay. Pharmacokinetic analysis was performed on plasma concentrations using the PhAST Software Program, Version 2.2-00 (Phoenix International Life Sciences Inc.). The highest observable concentration was assumed to be the peak concentration (Cmax); Time to Cmax was denoted Tmax. The area under the plasma concentration versus time-curve from time zero to the last measurable concentration [AUC(tf] was calculated by the linear trapezoidal method. Where applicable, numerical values were subjected to calculation of group means and % CV. Student-T-test with Satterthwaite approximation was performed on AUC and Cmax values to compare ONT-093 treated animals versus vehicle treated animals using SAS software program, Version 6.12 (SAS Institute Inc., Gary, N.C.). Where values were below limit of quantification, zero was used for pharmacokinetic analysis. The bioavailability (F) of saquinavir when administered with ONT-093 was calculated relative to the AUC values obtained from the animals receiving saquinavir following administration of the vehicle.

[2] = Clinical signs after saquinavir dose; format: in vivo, Sprague Dawley rats
Method: This clinical sign was no longer observable approximately 30 to 60 min after it was first observed.

[3] = in vivo; settings: male, Sprague Dawley, rat; for concentration at 2 hr: 2 hr Post-Dose
Method: as §1, §2, §3, §4

[4] = single agent + vehicle; paclitaxel 24 mg/kg i.v. Q5D x6 + 36 mg/kg i.v. Q5D x2; Formula 2 compound 30 mg/kg p.o. afternoon before and BID day of treatments
Method: Non-tumor bearing athymic mice were treated with the compound of Formula 2 and (or) paclitaxel as described.

[5] = tested on: MDA/LCC6^MDR1 tumors; assay: In vivo antitumor efficacy, orthotopic MDA/LCC6^MDR1 tumors; parameters: species or system SCID/RAG2 mice; settings: single agent alone; paclitaxel 12 mg/kg i.v.; Formula 2 free base 30 mg/kg p.o.
Method: Anti-tumor efficacy experiments with orthotopic MDA/LCC6 and MDA/LCC6^MDR1 tumors were conducted in female SCID/RAG2 mice. Ascites propagated cells (2×10^6 in 50 μl) were injected into mammary fat pads bilaterally on day 0 before randomization into groups of 5 mice per group. Paclitaxel (12 mg/kg/dose) was administered QD i.v. (tail vein) in 200 μl saline/Cremophor/ethanol (8/1/1 by volume) on days 5, 12, 19, and 26. The compound of Formula 2-free base (30 mg/kg/dose) was administered BID p.o. by gavage in 100 μl PEG 400/Tween 20 (9/1 by volume) on days 4-6, 11-13, 18-20, and 25-27. Mean body weights were recorded at least every other day. Tumor weight was monitored approximately every other day by caliper measurements and calculated according to the formula (Tumor weight =(length×width^2)÷2). This conversion formula was verified by comparing the calculation derived tumor weights to excised and weighed tumors. Animals bearing ulcerated tumors or where tumor weight exceeded 10% of the animal's body weight were terminated. The weights of the bilateral tumors were averaged for each mouse and mean tumor weights for each treatment group±standard error of the mean were calculated. Statistical analysis was carried out by Mann-Whitney test using GraphPad Prism software (San Diego, Calif.).
The compound of Formula 2 was administered the afternoon before, 2 hours before and 6 hours after each paclitaxel dose. The ability of orally administered Formula 2 compound to reverse MDR in solid tumors in vivo was assessed with the MDA/LCC6^MDR1 model. Because the compound of Formula 2 produced no effect on paditaxel blood levels, focus on up-front therapy (for naive animals) or minimal residual disease models was maintained, as opposed to established tumors. MDA/LCC6^MDR1 cells that express P-gp were resistant to paclitaxel treatment in vitro and this resistance was reversed by the compound of Formula 2 (FIG. 1). […] Similar results were obtained in three independent experiments with two different strains of immunocompromised mice (SCID/RAG-2 and athymic). […]

[6] = Oral paclitaxel bioavailability enhancement in rats (mesylate salt); format: in vivo; settings: male, Sprague Dawley, rat, plasma, Group 2: paclitaxel 40 mg/kg p.o. + vehicle
Method: A total of 21 male Sprague Dawley rats were used. Animals were approximately 8 weeks of age at arrival and weighed ca 327-359 g.
Following analysis of paclitaxel, all remaining plasma were tested for a determination of the Formula 2 compound concentration.
Plasma samples were analyzed for unchanged paclitaxel using a liquid chromatography/mass spectroscopy (“LC/MS”) assay. […] The highest observable concentration was used as the peak concentration (Cmax). Time to Cmax was denoted as Tmax. […] The area under the plasma concentration curve extrapolated to infinity (AUC(I)) was calculated as the sum of AUC(0-t) plus the ratio of the last plasma concentration to the elimination rate constant. The terminal elimination constant (K) was calculated from the last 3 non-zero points of the log-linear regression. Half-life (tot) was determined by dividing 0.693 by K. The apparent plasma clearance (CL/F) was calculated for paclitaxel by dividing the nominal dose administered by AUC(I). […] Where values were below the limit of quantification, zero was used for pharmacokinetic analysis. Statistical analysis consisted of a Student-T-test with Two-sample unequal variance approximation and was performed on AUC90-t) and Cmax values to compare the Formula 2 compound treated animals vs. the corresponding vehicle treated animals.

[7] = Enhancement of the oral bioavailability of paclitaxel and docetaxel in rats; format: in vivo; settings: male, Sprague-Dawley, rat, plasma, 10 mg/kg, Drug alone (10 mg/kg) oral; for AUC(0-t): read-out: AUC0-8
Method: In a further example, separate groups of eight male Sprague-Dawley rats (250-300 g body weight) with cannulae inserted into the jugular vein were purchased from Harlan-Sprague Dawley (Madison, Wis.). Animals were allowed free movement and access to water but were fasted for at least 8 h prior to the dose until study completion. […] Immediately prior to administration the mixture was diluted in saline to provide a paclitaxel or docetaxel concentration of 1mg/ml. Animals were then administered 10 μl/g body weight by oral gavage.
Serial blood samples (500 μl) were drawn prior to each dose (time 0) and at 0.5, 1, 2, 3, 4, 6 and 8 h through a cannula inserted into the jugular vein. The blood was collected into Microtainer® tubes containing EDTA anticoagulant. Whole blood was centrifuged under refrigeration at 2800 rpm for 10-20 minutes. Plasma samples were stored at −20° C. until analysis using a validated HPLC-MS method. Maximum plasma paclitaxel concentration (Cmax) and time to achieve this concentration (Tmax) were measured from concentration vs. time profiles. Area under the concentration vs. time curve from 0-8 hours (AUC0-8) was calculated using the linear and log trapezoidal methods in the rising and declining phases of the concentration vs. time curve respectively.

[8] = tested on: tumor-bearing mice; settings: 20 mg/kg paclitaxel alone once per week
[9] = Blood-brain barrier penetration of loperamide, mouse hot-plate test; format: in vivo, mice; settings: loperamide alone, i.v. 1-16 mg/kg
From the text: These increases were dose dependent with respect to loperamide.

CC(C)(C)NC(=O)[C@@H]1C[C@@H]2CCCC[C@@H]2CN1C[C@@H](O)[C@H](Cc1ccccc1)NC(=O)[C@H](CC(N)=O)NC(=O)c1ccc2ccccc2n1 [Saquinavir]
Saquinavir Concentration in Brain [1]: BLQ (3×) and 1.40 ng/mL | Saquinavir Concentration in CSF [1]: BLQ | concentration at 30 min ([1]; male, Sprague Dawley, rat, brain, oral, 20 mg/kg): 1.4 ng/mL | Rats with slight salivation immediately following the saquinavir dose ([2]; Group 1 (ONT-093 pretreatment)): 3 of 4 | Rats with slight salivation immediately following the saquinavir dose ([2]; Group 2 (vehicle pretreatment)): 2 of 4 | Rats with slight salivation immediately following the saquinavir dose ([2]; Group 3 (ONT-093 pretreatment)): 3 of 4 | Rats with slight salivation immediately following the saquinavir dose ([2]; Group 4 (vehicle pretreatment)): 4 of 4 | concentration at 0.25 hr ([3]; Concentration of Saquinavir in plasma, 0.25 hr Post-Dose, Mean): 84.6 ng/mL | concentration at 0.5 hr ([3]; Concentration of Saquinavir in plasma, 0.5 hr Post-Dose, Mean): 72.5 ng/mL | concentration at 1 hr ([3]; Concentration of Saquinavir in plasma, 1 hr Post-Dose, Mean): 99.5 ng/mL | concentration at 2 hr ([3]; Concentration of Saquinavir in plasma): 205 ng/mL | concentration at 2 hr ([3]; Concentration of Saquinavir in plasma, Mean): 157 ng/mL | concentration at 4 hr ([3]; Concentration of Saquinavir in plasma, 4 hr Post-Dose, Mean): 48.5 ng/mL | concentration at 8 hr ([3]; Concentration of Saquinavir in plasma, 8 hr Post-Dose, Mean): 4.92 ng/mL | AUC(0-inf) ([3]; po, 20 mg/kg): 524 ng·h/mL | AUC(0-t) ([3]; po, 20 mg/kg): 514 ng·h/mL | CL/F ([3]; po, 20 mg/kg): 654 mL/min/kg | Cmax ([3]; po, 20 mg/kg): 181 ng/mL | Tmax ([3]; po, 20 mg/kg): 1.6 h

CC(=O)O[C@H]1C(=O)[C@@]2(C)[C@H]([C@H](OC(=O)c3ccccc3)[C@]3(O)C[C@H](OC(=O)[C@H](O)[C@@H](NC(=O)c4ccccc4)c4ccccc4)C(C)=C1C3(C)C)[C@]1(OC(C)=O)CO[C@@H]1C[C@@H]2O [Paclitaxel]
Survival [4]: 0/4 | In vivo tumor growth compared to the vehicle control [5]: no significant effect | AUC(0-t) [6]: 67 ng·h/mL | half-life ([6]; read-out: Paclitaxel mean terminal phase half-life (t1/2) (converted)): 3.9 h | Cmax ([7]; control of the OCFB series): 99 ng/mL | AUC(0-t) ([7]; control of the OCFB series): 266 ng·h/mL | Cmax ([7]; control of the OCM series): 75 ng/mL | AUC(0-t) ([7]; control of the OCM series): 189 ng·h/mL | Lethality [8]: 50% | Tumor growth / tumor formation [8]: significantly inhibited tumor growth, but did not completely prevent tumor formation at any injection site

CC(=O)O[C@@]12CO[C@@H]1C[C@H](O)[C@@]1(C)C(=O)[C@H](O)C3=C(C)[C@@H](OC(=O)[C@H](O)[C@@H](NC(=O)OC(C)(C)C)c4ccccc4)C[C@@](O)([C@@H](OC(=O)c4ccccc4)[C@H]21)C3(C)C [Docetaxel]
Cmax ([7]; control of the OCFB series): 37 ng/mL | AUC(0-t) ([7]; control of the OCFB series): 32 ng·h/mL | Cmax ([7]; control of the OCM series): 30 ng/mL | AUC(0-t) ([7]; control of the OCM series): 69 ng·h/mL

CN(C)C(=O)C(CCN1CCC(O)(c2ccc(Cl)cc2)CC1)(c1ccccc1)c1ccccc1 [Loperamide]
Effect on mouse hot-plate escape time [9]: no effect
